Source: patent US20140121101A1, “TERNARY FUNGICIDAL COMPOSITIONS COMPRISING A DITHIINO-TETRACARBOXAMIDE FUNGICIDE” (BAYER INTELLECTUAL PROPERTY GMBH, priority 2011, published 2014)

Test system: Alternaria solani
Assay: Alternaria test (tomatoes)/preventive
Assay type: in vivo
Details: tomato plants, preventive spray, evaluated 3 days after inoculation
Method: Alternaria Test (Tomatoes)/Preventive [table] To produce a suitable preparation of active compound, 1 part by weight of active compound is mixed with the stated amounts of solvent and emulsifier, and the concentrate is diluted with water to the desired concentration. To test for preventive activity, young plants are sprayed with the preparation of active compound at the stated rate of application. After the spray coating has dried on, the plants are inoculated with an aqueous spore suspension of Alternaria solani. The plants are then placed in an incubation cabinet at approximately 20° C. and a relative atmospheric humidity of 100%. The test is evaluated 3 days after the inoculation. 0% means an efficacy which corresponds to that of the untreated control while an efficacy of 100% means that no disease is observed.

Row | SMILES | Efficacy in % found (activity found) (0.5 ppm a.i.) | Efficacy in % found (activity found) (5 ppm a.i.)
1 | OC(Cc1ccccc1Cl)(Cn1nc[nH]c1=S)C1(Cl)CC1 (stereo not drawn) [(2.41), prothioconazole] | 4% | –
2 | Cn1c(=O)c2sc3c(=O)n(C)c(=O)c3sc2c1=O [(1.1), 2,6-dimethyl-1H,5H-[1,4]dithiino[2,3-c:5,6-c′]dipyrrole-1,3,5,7(2H,6H)-tetrone] | – | 0%
3 | CON=C(C(=O)OC)c1ccccc1CON=C(C)c1cccc(C(F)(F)F)c1 [(3.22), trifloxystrobin] | 29% | –
